The text below walks through data of patent US10329289B2, “6,7-dihydro-5H-pyrrolo[3,4-B]pyridin-5-one allosteric modulators of the M4 muscarinic acetylcholine receptor” (Merck Sharp & Dohme Corp., priority 2015, dated 2019).

pEC50: −log10 of the molar value.

This assay deals with T1, human M4 muscarinic acetylcholine receptor (Homo sapiens, UniProt P08173).
T1 construct: expressed in transfected cells; host or cells: CHO-K1
T1 sequence (P08173 1-479): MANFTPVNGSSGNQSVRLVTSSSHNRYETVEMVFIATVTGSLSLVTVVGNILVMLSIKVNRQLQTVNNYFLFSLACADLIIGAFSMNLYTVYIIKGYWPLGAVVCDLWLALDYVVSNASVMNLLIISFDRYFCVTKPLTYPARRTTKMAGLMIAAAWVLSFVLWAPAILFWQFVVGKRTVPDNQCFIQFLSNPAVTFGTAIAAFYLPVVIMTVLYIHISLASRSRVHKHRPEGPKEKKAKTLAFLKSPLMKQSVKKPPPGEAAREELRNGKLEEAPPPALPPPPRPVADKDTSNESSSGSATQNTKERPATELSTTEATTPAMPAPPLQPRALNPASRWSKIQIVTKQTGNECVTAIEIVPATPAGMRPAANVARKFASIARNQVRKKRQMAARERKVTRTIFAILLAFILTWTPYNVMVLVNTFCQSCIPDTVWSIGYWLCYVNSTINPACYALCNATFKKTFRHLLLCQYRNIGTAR
Description: human FLIPR-based M4 PAM assay (Ca2+ mobilization, CHO-K1 cells with human M4 receptor and Gαqi5). The class given is cell-based. Particulars: acetylcholine at 20% of maximum response, read-out: M4 PAM IP. An outline of the steps:
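Calcium-mobilization (FLIPR) readout in dye-loaded CHO-K1 cells co-expressing human M4 receptor and Gαqi5. Potentiation measured against acetylcholine at a concentration giving 20% of maximal response, with an optional 70% addition; the reported value is the curve inflection point from a 4-parameter logistic fit.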
For orientation: A change in cytosolic calcium serves as a functional read-out for many receptors and channels.
Regarding `Cc1cc2c(nc1N1CCC(Oc3ccc4[nH]ncc4c3)CC1)C(C)N(C)C2=O` (stereo not drawn) [Example 14, 2-(4-((1H-indazol-5-yl)oxy)piperidin-1-yl)-3,6,7-trimethyl-6,7-dihydro-5H-pyrrolo[3,4-b]pyridin-5-one], the pEC50 is 7.28.

As to `CCc1cc2c(nc1N1CCC(Oc3ccc4c(c3)C[C@H](O)C4)CC1)CNC2=O` [Example 166A, (R)-3-ethyl-2-(4-((2-hydroxy-2,3-dihydro-1H-inden-5-yl)oxy)piperidin-1-yl)-6,7-dihydro-5H-pyrrolo[3,4-b]pyridin-5-one], the pEC50 is 7.21.

As for `Cc1cc2c(nc1N1CCC(Oc3ccc4c(c3)NCCO4)CC1)CNC2=O` [Example 107, 2-(4-((3,4-dihydro-2H-benzo[b][1,4]oxazin-6-yl)oxy)piperidin-1-yl)-3-methyl-6,7-dihydro-5H-pyrrolo[3,4-b]pyridin-5-one], the pEC50 is 7.06.

In the case of `Cc1c(N2CCC(Oc3ccc4c(c3)OCC4)CC2)nc2c(c1C)C(=O)NC2` [Example 333, 2-(4-((2,3-dihydrobenzofuran-6-yl)oxy)piperidin-1-yl)-3,4-dimethyl-6,7-dihydro-5H-pyrrolo[3,4-b]pyridin-5-one], the pEC50 is 7.43.

For `CCc1cc2c(nc1N1CCC(Oc3ccc4c(c3)CCOC4)CC1)CN(CCO)C2=O` [Example 266F, 3-ethyl-6-(2-hydroxyethyl)-2-(4-(isochroman-6-yloxy)piperidin-1-yl)-6,7-dihydro-5H-pyrrolo[3,4-b]pyridin-5-one], the pEC50 is 7.24.

As for `Cc1cc2c(nc1N1CCC(Oc3ccc4c(c3)COC4)CC1)CN(CCO)C2=O` [Example 263, 2-(4-((1,3-dihydro-2-benzofuran-5-yl)oxy)piperidin-1-yl)-6-(2-hydroxyethyl)-3-methyl-6,7-dihydro-5H-pyrrolo[3,4-b]pyridin-5-one], the pEC50 was 7.24.

For `COC(=O)c1cc2c(nc1N1CCC(Oc3ccc(OC)nc3)CC1)CNC2=O` [Example 160, methyl 2-(4-((6-methoxypyridin-3-yl)oxy)piperidin-1-yl)-5-oxo-6,7-dihydro-5H-pyrrolo[3,4-b]pyridine-3-carboxylate], the pEC50 is 6.64.

In the case of `COc1ccc(OC2CCN(c3nc4c(c(C)c3C)C(=O)N(C)[C@H]4CO)CC2)cn1` [Example 344A, (R)-7-(hydroxymethyl)-2-(4-((6-methoxypyridin-3-yl)oxy)piperidin-1-yl)-3,4,6-trimethyl-6,7-dihydro-5H-pyrrolo[3,4-b]pyridin-5-one], the pEC50 is 6.12.

On to `Cc1c(N2CCC(Oc3ccc4c(c3)CCOC4)CC2)nc2c(c1C)C(=O)N(C)[C@H]2CO` [Example 370, (R)-7-(hydroxymethyl)-2-(4-(isochroman-6-yloxy)piperidin-1-yl)-3,4,6-trimethyl-6,7-dihydro-5H-pyrrolo[3,4-b]pyridin-5-one], for which the pEC50 was 5.92.

For `Cc1cc2c(nc1N1CCC(Oc3ccc4ncnn4c3)CC1)CNC2=O` [Example 197A, 2-(4-([1,2,4]triazolo[1,5-a]pyridin-6-yloxy)piperidin-1-yl)-3-methyl-6,7-dihydro-5H-pyrrolo[3,4-b]pyridin-5-one], the pEC50 was 6.55.

Take `COc1ccc(OC2CCN(c3nc4c(cc3C)C(=O)N(C)[C@H]4CO)CC2)cn1` (single isomer, unassigned) [Example 273A]: the pEC50 was 5.35.

On to `Cc1cc2c(nc1N1CCC(Oc3cncc(C#N)c3)CC1)CNC2=O` [Example 50, 5-((1-(3-methyl-5-oxo-6,7-dihydro-5H-pyrrolo[3,4-b]pyridin-2-yl)piperidin-4-yl)oxy)nicotinonitrile], for which the pEC50 is 6.18.

For the compound `CC(=O)N1Cc2ccc(OC3CCN(c4nc5c(cc4C)C(=O)NC5)CC3)cc2C1` [Example 294, 2-(4-((2-Acetylisoindolin-5-yl)oxy)piperidin-1-yl)-3-methyl-6,7-dihydro-5H-pyrrolo[3,4-b]pyridin-5-one], the pEC50 was 6.69.

Regarding `COc1ccc(OC2CCN(c3nc4c(cc3C)C(=O)N([C@H](C)CO)C4)CC2)cn1` (single isomer, unassigned) [Example 264B], the pEC50 is 6.97.

On to `Cc1cc2c(nc1N1CCC(Oc3ccc4c(c3)C(=O)N(C3CC3)C4)CC1)CNC2=O` [Example 10, 2-(4-((2-cyclopropyl-3-oxoisoindolin-5-yl)oxy)piperidin-1-yl)-3-methyl-6,7-dihydro-5H-pyrrolo[3,4-b]pyridin-5-one], for which the pEC50 is 6.75.

For `Cc1cc2c(nc1N1CCC(OC3CCOCC3)CC1)CNC2=O` [Example 42, 3-methyl-2-(4-((tetrahydro-2H-pyran-4-yl)oxy)piperidin-1-yl)-6,7-dihydro-5H-pyrrolo[3,4-b]pyridin-5-one], the pEC50 was 5.76.

`COc1ccc(O[C@@H]2CCN(c3nc4c(cc3C)C(=O)NC4)C[C@@H]2C)cn1` [Example 29A, 2-((3S,4R)-4-((6-methoxypyridin-3-yl)oxy)-3-methylpiperidin-1-yl)-3-methyl-6,7-dihydro-5H-pyrrolo[3,4-b]pyridin-5-one]: the pEC50 was 7.20.

With `Cc1ccc(OC2CCN(c3nc4c(cc3C)C(=O)NC4)CC2)cc1F` [Example 134, 2-(4-(3-fluoro-4-methylphenoxy)piperidin-1-yl)-3-methyl-6,7-dihydro-5H-pyrrolo[3,4-b]pyridin-5-one], the pEC50 is 6.78.

For `Cc1cc2c(nc1N1CCC(OCC3CC3)CC1)CNC2=O` [Example 9, 2-(4-(cyclopropylmethoxy)piperidin-1-yl)-3-methyl-6,7-dihydro-5H-pyrrolo[3,4-b]pyridin-5-one], the pEC50 was 7.08.

For `C=C1NC(=O)c2cc(C)c(N3CCC(Oc4ccc(OC)nc4)CC3)nc21` [Example 289, 2-(4-((6-Methoxypyridin-3-yl)oxy)piperidin-1-yl)-3-methyl-7-methylene-6,7-dihydro-5H-pyrrolo[3,4-b]pyridin-5-one], the pEC50 was 6.81.

With `CCc1cc2c(nc1N1CC[C@@H](Oc3cnc4c(c3)COC4)[C@@H](F)C1)CNC2=O` [Example 164A, 2-((3S,4R)-4-((5,7-dihydrofuro[3,4-b]pyridin-3-yl)oxy)-3-fluoropiperidin-1-yl)-3-ethyl-6,7-dihydro-5H-pyrrolo[3,4-b]pyridin-5-one], the pEC50 was 6.69.

On to `Cc1cc2c(nc1N1CCC(Oc3ccc(O[C@H](C)CO)nc3)CC1)CNC2=O` [Example 143B, (R)-2-(4-((6-((1-hydroxypropan-2-yl)oxy)pyridin-3-yl)oxy)piperidin-1-yl)-3-methyl-6,7-dihydro-5H-pyrrolo[3,4-b]pyridin-5-one], for which the pEC50 is 6.93.

For `Cc1cc2c(nc1N1CCC(Oc3ccc(Cl)cc3)CC1)CNC2=O` [Example 76, 2-(4-(4-chlorophenoxy)piperidin-1-yl)-3-methyl-6,7-dihydro-5H-pyrrolo[3,4-b]pyridin-5-one], the pEC50 is 7.10.

As to `Cc1cc2c(nc1N1CCC(OCC(C)C(F)(F)F)CC1)CNC2=O` (stereo not drawn) [Example 188, 3-methyl-2-(4-(3,3,3-trifluoro-2-methylpropoxy)piperidin-1-yl)-6,7-dihydro-5H-pyrrolo[3,4-b]pyridin-5-one], the pEC50 is 5.91.

Turning to `Cc1cc2c(nc1N1CCC(OCC3(C)CC3C#N)CC1)CNC2=O` (single isomer, unassigned) [Example 191A], the pEC50 is 5.83.

Take `Cc1cc2c(nc1N1CCC(Oc3ccc4c(c3)CC(O)C4)CC1)CNC2=O` (stereo not drawn) [Example 324, 2-(4-((2-Hydroxy-2,3-dihydro-1H-inden-5-yl)oxy)piperidin-1-yl)-3-methyl-6,7-dihydro-5H-pyrrolo[3,4-b]pyridin-5-one]: the pEC50 is 7.77.

Turning to `Cc1cc2c(nc1N1CCC(Oc3ccc4c(c3)CCC(=O)N4)CC1)CNC2=O` [Example 118, 6-((1-(3-methyl-5-oxo-6,7-dihydro-5H-pyrrolo[3,4-b]pyridin-2-yl)piperidin-4-yl)oxy)-3,4-dihydroquinolin-2(1H)-one], the pEC50 is 6.85.

`Cc1cc2c(nc1N1CCC(Oc3cnc4[nH]ncc4c3)CC1)CNC2=O` [Example 206, 2-(4-((1H-pyrazolo[3,4-b]pyridin-5-yl)oxy)piperidin-1-pyrazolo[3,4-b]yl)-3-methyl-6,7-dihydro-5H-pyrrolo[3,4-b]pyridin-5-one]: the pEC50 is 6.23.

Turning to `Cc1cc2c(nc1N1CCC(OC[C@@]3(C)C[C@H]3F)CC1)CNC2=O` (single isomer, unassigned) [Example 160B], the pEC50 was 7.02.

For `COc1ccc(OC2CCN(c3nc4c(cc3C)C(=O)N[C@@H]4CO)CC2)cn1` (single isomer, unassigned) [Example 271B], the pEC50 is 7.42.

Regarding `Cc1cc2c(nc1N1CCC(Oc3cccc(C#N)c3)CC1)CN(C1CC1)C2=O` [Example 249, 3-((1-(6-cyclopropyl-3-methyl-5-oxo-6,7-dihydro-5H-pyrrolo[3,4-b]pyridin-2-yl)piperidin-4-yl)oxy)benzonitrile], the pEC50 was 7.49.

For `COc1cncc(OC2CCN(c3nc4c(cc3C)C(=O)NC4)CC2)c1` [Example 101, 2-(4-((5-methoxypyridin-3-yl)oxy)piperidin-1-yl)-3-methyl-6,7-dihydro-5H-pyrrolo[3,4-b]pyridin-5-one], the pEC50 is 6.06.

As for `Cc1c(N2CCC(Oc3ccc(F)cc3)CC2)nc2c(c1C)C(=O)N(C)[C@@H]2CO` [Example 353, (S)-2-(4-(4-fluorophenoxy)piperidin-1-yl)-7-(hydroxymethyl)-3,4,6-trimethyl-6,7-dihydro-5H-pyrrolo[3,4-b]pyridin-5-one], the pEC50 was 7.52.
